Reference: US4767762A, “Tricyclic quinoline and naphthyride antibacterials” (Abbott Laboratories, priority 1986, dated 1988)
≈ marks a conversion by molar mass, not a printed value.

What was measured:
Test in all cases: in vitro antibacterial activity (MIC), conventional agar dilution
Format in all cases: cell-based
E. coli Juhl = details: Escherichia coli, brain-heart infusion agar, inoculum 10^4 /plate
Experimental: (§1) The in vitro antibacterial activity is determined by conventional agar dilution procedures. A brain-heart infusion agar medium containing the drug is inoculated with a microbial culture cultivated on a brain-infusion broth (Difco 0037-01-6) at 36° C. for 18 hours and then observes for growth of the microorganism. The minimum concentration at which growth of the microorganism is inhibited is taken as MIC (ug/ml). The inoculum size is 10^4 /plate.

K. pneumoniae ATCC 8045 = details: Klebsiella pneumoniae, ATCC8045, brain-heart infusion agar, inoculum 10^4 /plate
Experimental: as §1

Acinetobacter sp CMX 669 = details: CMX669, brain-heart infusion agar, inoculum 10^4 /plate
Experimental: as §1

Strep. Pyogenes EES61 = details: Streptococcus pyogenes, brain-heart infusion agar, inoculum 10^4 /plate
Experimental: as §1

P. stuartii CMX 640 = details: Providencia stuartii, CMX640, brain-heart infusion agar, inoculum 10^4 /plate
Experimental: as §1

Ent. faecium ATCC 8043 = details: Enterococcus faecium, ATCC8043, brain-heart infusion agar, inoculum 10^4 /plate
Experimental: as §1

Stap. epidermis 3519 = details: brain-heart infusion agar, inoculum 10^4 /plate
Experimental: as §1

Stap. aureus ATCC-6538p = details: Staphylococcus aureus, ATCC6538P, brain-heart infusion agar, inoculum 10^4 /plate
Experimental: as §1

P. aeruginosa A5007 = details: Pseudomonas aeruginosa, brain-heart infusion agar, inoculum 10^4 /plate
Experimental: as §1

[1] = tested on: Ent. aerogenes ATCC 13048; details: Klebsiella aerogenes, ATCC13048, brain-heart infusion agar, inoculum 10^4 /plate
Experimental: as §1

Row | Compound | MIC (E. coli Juhl) | MIC (K. pneumoniae ATCC 8045) | MIC (Acinetobacter sp CMX 669) | MIC (Strep. Pyogenes EES61) | MIC (P. stuartii CMX 640) | MIC (Ent. faecium ATCC 8043) | MIC (Stap. epidermis 3519) | MIC (Stap. aureus ATCC-6538p) | MIC (P. aeruginosa A5007) | MIC [1]
1 | CCn1c2cc(N3CCNC(C)C3)c(F)cc2c(=O)c2c(=O)[nH]sc21 (stereo not drawn) [46(ww), 9-ethyl-6-fluoro-7-(3-methyl-1-piperazinyl)-2,3,4,9-tetrahydroisothiazolo[5,4-b]quinoline-3,4-dione] | 0.1 µg/mL (≈ 0.276 µM) | 0.2 µg/mL (≈ 0.552 µM) | 0.2 µg/mL (≈ 0.552 µM) | 0.78 µg/mL (≈ 2.15 µM) | 1.56 µg/mL (≈ 4.3 µM) | 0.78 µg/mL (≈ 2.15 µM) | 0.1 µg/mL (≈ 0.276 µM) | 0.05 µg/mL (≈ 0.138 µM) | 0.39 µg/mL (≈ 1.08 µM) | 0.1 µg/mL (≈ 0.276 µM)
2 | CCn1c2cc(N3CCNCC3)c(F)cc2c(=O)c2c(=O)[nH]sc21 [46(m), 9-ethyl-6-fluoro-7-(1-piperazinyl)-2,3,4,9-tetrhydroisothiazolo[5,4-b]quinoline-3,4-dione] | 0.1 µg/mL (≈ 0.287 µM) | 0.05 µg/mL (≈ 0.144 µM) | 0.39 µg/mL (≈ 1.12 µM) | 0.2 µg/mL (≈ 0.574 µM) | 0.39 µg/mL (≈ 1.12 µM) | 0.39 µg/mL (≈ 1.12 µM) | 0.2 µg/mL (≈ 0.574 µM) | 0.1 µg/mL (≈ 0.287 µM) | 0.2 µg/mL (≈ 0.574 µM) | 0.2 µg/mL (≈ 0.574 µM)
3 | CCn1c2s[nH]c(=O)c2c(=O)c2cc(F)c(N3CCNCC3)c(F)c21 [46(dd), 9-ethyl-6,8-difluoro-7-(piperazinyl)-2,3,4,9-tetrahydroisothiazolo[5,4-b]quinoline-3,4-dione] | 0.05 µg/mL (≈ 0.136 µM) | 0.05 µg/mL (≈ 0.136 µM) | 0.2 µg/mL (≈ 0.546 µM) | 0.39 µg/mL (≈ 1.06 µM) | 0.78 µg/mL (≈ 2.13 µM) | 0.2 µg/mL (≈ 0.546 µM) | 0.05 µg/mL (≈ 0.136 µM) | 0.05 µg/mL (≈ 0.136 µM) | 0.78 µg/mL (≈ 2.13 µM) | 0.05 µg/mL (≈ 0.136 µM)
4 | CC1CN(c2cc3c(cc2F)c(=O)c2c(=O)[nH]sc2n3-c2ccc(F)cc2F)CC1N (stereo not drawn) [46(g), 9-o,p-difluorophenyl-6-fluoro-7-(3-amino-4-methyl-1-pyrrolidinyl)-2,3,4,9-tetrahydroisothiazolo[5,4-b]quinoline-3,4-dione] | 0.05 µg/mL (≈ 0.112 µM) | 0.1 µg/mL (≈ 0.224 µM) | 0.1 µg/mL (≈ 0.224 µM) | 0.78 µg/mL (≈ 1.75 µM) | 0.39 µg/mL (≈ 0.874 µM) | 0.2 µg/mL (≈ 0.448 µM) | 0.1 µg/mL (≈ 0.224 µM) | 0.05 µg/mL (≈ 0.112 µM) | 0.78 µg/mL (≈ 1.75 µM) | 0.1 µg/mL (≈ 0.224 µM)
5 | CN1CCN(c2cc3c(cc2F)c(=O)c2c(=O)[nH]sc2n3-c2ccc(F)cc2)CC1 [46(a), 9-p-fluorophenyl-6-fluoro-7-(4-methyl-1-piperazinyl)-2,3,4,9-tetrahydroisothiazolo[5,4-b]quinoline-3,4-dione] | 0.2 µg/mL (≈ 0.467 µM) | 0.1 µg/mL (≈ 0.233 µM) | 0.2 µg/mL (≈ 0.467 µM) | 1.56 µg/mL (≈ 3.64 µM) | 12.5 µg/mL (≈ 29.2 µM) | 1.56 µg/mL (≈ 3.64 µM) | 0.2 µg/mL (≈ 0.467 µM) | 0.01 µg/mL (≈ 0.0233 µM) | 1.56 µg/mL (≈ 3.64 µM) | 0.39 µg/mL (≈ 0.91 µM)
6 | O=c1[nH]sc2c1c(=O)c1cc(F)c(N3CCNCC3)cc1n2C1CC1 [46(zz), 9-cyclopropyl-6-fluoro-7-(1-piperazinyl)-2,3,4,9-tetrahydroisothiazolo[5,4-b]quinoline-3,4-dione] | 0.005 µg/mL (≈ 0.0139 µM) | 0.005 µg/mL (≈ 0.0139 µM) | 0.05 µg/mL (≈ 0.139 µM) | 0.05 µg/mL (≈ 0.139 µM) | 0.2 µg/mL (≈ 0.555 µM) | 0.1 µg/mL (≈ 0.277 µM) | 0.05 µg/mL (≈ 0.139 µM) | 0.02 µg/mL (≈ 0.0555 µM) | 0.05 µg/mL (≈ 0.139 µM) | 0.01 µg/mL (≈ 0.0277 µM)
7 | CC1CN(c2cc3c(cc2F)c(=O)c2c(=O)[nH]sc2n3-c2ccc(F)cc2)CCN1 (stereo not drawn) [46(b), 9-p-fluorophenyl-6-fluoro-7-(3-methyl-1-piperazinyl)-2,3,4,9-tetrahydroisothiazolo[5,4-b]quinoline-3,4-dione] | 0.05 µg/mL (≈ 0.117 µM) | 0.01 µg/mL (≈ 0.0233 µM) | 0.1 µg/mL (≈ 0.233 µM) | 0.78 µg/mL (≈ 1.82 µM) | 6.2 µg/mL (≈ 14.5 µM) | 0.78 µg/mL (≈ 1.82 µM) | 0.2 µg/mL (≈ 0.467 µM) | 0.01 µg/mL (≈ 0.0233 µM) | 1.56 µg/mL (≈ 3.64 µM) | 0.02 µg/mL (≈ 0.0467 µM)
8 | CCn1c2cc(N3CCCC3)c(F)cc2c(=O)c2c(=O)[nH]sc21 [46(bbb), 9-ethyl-6-fluoro-7-(1-pyrrolidinyl)-2,3,4,9-tetrahydroisothiazolo[5,4-b]quinoline-3,4-dione] | 0.05 µg/mL (≈ 0.15 µM) | 0.05 µg/mL (≈ 0.15 µM) | 0.2 µg/mL (≈ 0.6 µM) | 1.56 µg/mL (≈ 4.68 µM) | > 100 µg/mL | 0.2 µg/mL (≈ 0.6 µM) | 0.02 µg/mL (≈ 0.06 µM) | 0.01 µg/mL (≈ 0.03 µM) | 0.2 µg/mL (≈ 0.6 µM) | 0.2 µg/mL (≈ 0.6 µM)
9 | CCn1c2s[nH]c(=O)c2c(=O)c2cc(F)c(N3CCNC(C)C3)c(F)c21 (stereo not drawn) [46(xx), 9-ethyl-6,8-difluoro-7-(3-methyl-1-piperazinyl)-2,3,4,9-tetrahydroisothiazolo[5,4-b]quinoline-3,4-dione] | 0.05 µg/mL (≈ 0.131 µM) | 0.005 µg/mL (≈ 0.0131 µM) | 0.1 µg/mL (≈ 0.263 µM) | 0.39 µg/mL (≈ 1.03 µM) | 3.1 µg/mL (≈ 8.15 µM) | 0.78 µg/mL (≈ 2.05 µM) | 0.2 µg/mL (≈ 0.526 µM) | 0.1 µg/mL (≈ 0.263 µM) | 1.56 µg/mL (≈ 4.1 µM) | 0.1 µg/mL (≈ 0.263 µM)
10 | CCn1c2s[nH]c(=O)c2c(=O)c2cc(F)c(N3CCN(C)CC3)c(F)c21 [46(cc), 9-ethyl-6,8-difluoro-7-(4-methyl-1-piperazinyl)-2,3,4,9-tetrahydroisothiazolo[5,4-b]quinoline-3,4-dione] | 0.1 µg/mL (≈ 0.263 µM) | 0.05 µg/mL (≈ 0.131 µM) | 0.1 µg/mL (≈ 0.263 µM) | 0.78 µg/mL (≈ 2.05 µM) | 3.1 µg/mL (≈ 8.15 µM) | 0.39 µg/mL (≈ 1.03 µM) | 0.2 µg/mL (≈ 0.526 µM) | 0.1 µg/mL (≈ 0.263 µM) | 3.1 µg/mL (≈ 8.15 µM) | 0.2 µg/mL (≈ 0.526 µM)

Continued by falling MIC (E. coli Juhl), values first:

Row | MIC (E. coli Juhl) | MIC (K. pneumoniae ATCC 8045) | MIC (Acinetobacter sp CMX 669) | MIC (Strep. Pyogenes EES61) | MIC (P. stuartii CMX 640) | MIC (Ent. faecium ATCC 8043) | MIC (Stap. epidermis 3519) | MIC (Stap. aureus ATCC-6538p) | MIC (P. aeruginosa A5007) | MIC [1] | Compound
11 | 0.05 µg/mL (≈ 0.138 µM) | 0.05 µg/mL (≈ 0.138 µM) | 0.05 µg/mL (≈ 0.138 µM) | 0.39 µg/mL (≈ 1.08 µM) | 1.56 µg/mL (≈ 4.3 µM) | 0.2 µg/mL (≈ 0.552 µM) | 0.1 µg/mL (≈ 0.276 µM) | 0.05 µg/mL (≈ 0.138 µM) | 0.39 µg/mL (≈ 1.08 µM) | 0.1 µg/mL (≈ 0.276 µM) | CCn1c2cc(N3CCN(C)CC3)c(F)cc2c(=O)c2c(=O)[nH]sc21 [46(l), 9-ethyl-6-fluoro-7-(4-methyl-1-piperazinyl)-2,3,4,9-tetrahydroisothiazolo[5,4-b]quinoline-3,4-dione]
12 | 0.05 µg/mL | 0.005 µg/mL | 0.05 µg/mL | 0.05 µg/mL | 0.39 µg/mL | 0.1 µg/mL | 0.05 µg/mL | 0.02 µg/mL | 0.2 µg/mL | 0.01 µg/mL | Cl.NC1CCN(c2cc3c(cc2F)c(=O)c2c(=O)[nH]sc2n3C2CC2)C1 (stereo not drawn) [47(b), 9-cyclopropyl-6-fluoro-7-(3-amino-1-pyrrolidinyl)-2,3,4,9-tetrahydroisothiazolo[5,4-b]quinoline-3,4-dione hydrochloride]
13 | 0.05 µg/mL (≈ 0.121 µM) | 0.02 µg/mL (≈ 0.0483 µM) | 0.2 µg/mL (≈ 0.483 µM) | 0.78 µg/mL (≈ 1.88 µM) | 3.1 µg/mL (≈ 7.48 µM) | 0.78 µg/mL (≈ 1.88 µM) | 0.2 µg/mL (≈ 0.483 µM) | 0.1 µg/mL (≈ 0.241 µM) | 0.78 µg/mL (≈ 1.88 µM) | 0.1 µg/mL (≈ 0.241 µM) | O=c1[nH]sc2c1c(=O)c1cc(F)c(N3CCNCC3)cc1n2-c1ccc(F)cc1 [46(yy), 9-p-fluorophenyl-6-fluoro-7-(1-piperozinyl)-2,3,4,9-tetrahydroisothiazolo[5,4-b]quinoline-3,4-dione]
14 | 0.02 µg/mL (≈ 0.0553 µM) | ≤ 0.005 µg/mL | 0.02 µg/mL (≈ 0.0553 µM) | 0.39 µg/mL (≈ 1.08 µM) | 0.78 µg/mL (≈ 2.16 µM) | 0.2 µg/mL (≈ 0.553 µM) | 0.01 µg/mL (≈ 0.0277 µM) | 0.005 µg/mL (≈ 0.0138 µM) | 0.39 µg/mL (≈ 1.08 µM) | 0.05 µg/mL (≈ 0.138 µM) | O=c1[nH]sc2c1c(=O)c1cc(F)c(N3CCC(O)C3)cc1n2C1CC1 (stereo not drawn) [46(ss), 9-cyclopropyl-6-fluoro-7-(3-hydroxy-1-pyrrolidinyl)-2,3,4,9-tetrahydroisothiazolo[5,4-b]quinoline-3,4-dione]
15 | 0.01 µg/mL (≈ 0.0273 µM) | 0.01 µg/mL (≈ 0.0273 µM) | 0.1 µg/mL (≈ 0.273 µM) | 0.78 µg/mL (≈ 2.13 µM) | 0.78 µg/mL (≈ 2.13 µM) | 0.2 µg/mL (≈ 0.546 µM) | 0.1 µg/mL (≈ 0.273 µM) | 0.05 µg/mL (≈ 0.136 µM) | 0.78 µg/mL (≈ 2.13 µM) | 0.02 µg/mL (≈ 0.0546 µM) | CCn1c2s[nH]c(=O)c2c(=O)c2cc(F)c(N3CCC(N)C3)c(F)c21 (stereo not drawn) [47(g), 9-ethyl-6,8-difluoro-7-(3-amino-1-pyrrolidinyl)-2,3,4,9-tetrahydroisothiazolo[5,4-b]quinoline-3,4-dione]
